{"source": "paper PMC5656594", "about": "(Scientific Reports, 2017)", "key": {"[1]": {"molecular_target": "T1, PFV IN complexed with various DNA sequences (Human spumaretrovirus, UniProt P14350)", "T1 construct": "The full-length wt IN^PFV, the three single mutants of the catalytic triad; His; made in house; host or cells: E. coli BL21-CodonPlus (DE3)-RIPL", "test": "DTG binding to IN complexed with various DNA sequences, fluorescence intensity procedure", "parameters": "species or system prototype foamy virus (PFV)", "conditions": "for DTG-binding (%) Fluorescence intensity procedure: normalized by DNA#1, [IN]=[DNA]=1.8 μM, [DTG]=0.3 μM, 1 mM Mg2+", "procedure": "All experiments were performed in the presence of 1 mM Mg^2+ (see Supplementary Fig. S4 for [Mg^2+] = 10 mM). λex = 345 nm and PMT = 980 V (Δλex = Δλem = 5 nm). […] Contributions of Raman and Rayleigh scattering were eliminated in the inset spectrum: (viii) = (iv)–(vii) where (vii) represents the proper spectrum of Mg^2+-DTG in the context of the binary IN-DNA complex. […] [Mg^2+] = 1 mM. Inset: fluorescence intensity (375–385 nm) as a function of (IN + DNA). The arrows indicate the intensity level after addition of 500 mM NaCl. Emission spectra are representative of 3 independent experiments for each condition of (IN + DNA). […] (E) Measurement of the binary IN-DNA complex formation. The formation of binary complexes was performed by monitoring the fluorescence anisotropy (r) of DNA (Fl-PFV^CAAT) under similar experimental conditions of the DTG-binding assay (panels C-D). Top, varying stoichiometric concentrations of IN and DNA were mixed and the r parameter was monitored. A constant concentration of Fl-DNA (0.3 μM) was maintained throughout the titration. […] Bottom, corresponding percentages of binary complexes as a function of (IN + DNA): % = (r–r0)/(rmax–r0)x100 where r0 and rmax correspond to anisotropy values of free DNA and IN-bound DNA, respectively. (F) Linear relationship between the percentages of ternary and binary complexes. […]\n(§1) Fluorescence excitation and emission spectra of INSTIs were recorded on a Eclipse (Varian) spectrofluorimeter equipped with two polarizers for anisotropy measurements and a thermostated cell holder, using 80 µl solutions placed in micro cells (Hellma). Drug, IN and DNA concentrations, excitation/emission slit settings as well as the photomultiplier tube (PMT) voltage are specified in figure legends. The intensity value was corrected from the inner filter effect. The steady-state fluorescence anisotropy was calculated using: r = (IVV–G x IVH)/(IVV + 2GxIVH) where IVV and IVH correspond to vertical and horizontal components, respectively, when the sample is excited with vertically polarized light. G represents the correction factor for the difference in the monochromator transmission between // and ⊥ polarized components: G = IHV/IHH. All experiments were performed at 25 °C in buffer A: 20 mM Tris pH 7.2, 50 mM NaCl, 1 mM DTT and 10% (v/v) DMSO."}, "[2]": {"molecular_target": "T1, PFV IN complexed with various DNA sequences", "test": "DTG binding to IN complexed with various DNA sequences, fluorescence anisotropy procedure", "parameters": "species or system prototype foamy virus (PFV)", "conditions": "normalized by DNA#1, [IN]=[DNA]=1.8 μM, [DTG]=0.6 μM, 10 mM Mg2+", "procedure": "The binary complex concentration was measured as explained in Fig. 2E. […] This percentage was then plotted against the concentration of the binary complex (F). […] All graphs show representative data of three (panels A and B) or two (panels C–F) independent experiments.\nas §1"}, "[3]": {"test": "DTG-Mg2+ interaction, titration of DTG fluorescence emission enhancement as a function of [Mg2+]", "type": "physicochemical", "conditions": "DTG 1 μM, λex 345 nm, buffer A, hyperbolic titration curve; read-out: Kd of the DTG-Mg^2+ interaction", "source_text": "Figure 1 Fluorescence properties of INSTIs in solution and influence of divalent cations. […] Corresponding excitation and emission spectra are shown in Supplementary Fig. S1. Excitation and emission slits: Δλex = Δλem = 5 nm (PMT = 750 V). The fluorescence enhancement factor corresponds to the drug fluorescence emission intensity for a given Mg^2+ concentration normalized by the intensity in the absence of Mg^2+. […] The emission intensity was reported as a function of [Mg^2+] (inset). […] The bar graphs in panels A and D show mean ± SD values from three independent experiments. […] Only [Mg2+] and λex: 345 nm appear in the panel, so the substance is left empty.\nFurthermore, both drugs display a Mg^2+ dependence of fluorescence intensity, however with some differences. A slight increase of EVG fluorescence intensity was observed upon addition of Mg^2+ (a 3-fold increase for the two excitation modes from 0 to 10 mM Mg^2+; Fig. 1B). […] This Mg^2+-dependent enhancement is related to an increase of the fluorescence quantum yield since no Mg^2+-dependent change in the absorption spectrum was observed (Supplementary Fig. S2A).\nFluorescence excitation and emission spectra of INSTIs were recorded on a Eclipse (Varian) spectrofluorimeter equipped with two polarizers for anisotropy measurements and a thermostated cell holder, using 80 µl solutions placed in micro cells (Hellma). […]"}}, "note": "Several values for one entry are separate records, joined by “and”; a condition that tells them apart may be missing. Identical values can stand only once."}
{"compound": "C[C@@H]1CCO[C@H]2Cn3cc(C(=O)NCc4ccc(F)cc4F)c(=O)c(O)c3C(=O)N12", "note": "[DTG, dolutegravir]", "values": [{"measurement": "DTG-binding (%) Fluorescence intensity procedure", "setting": "[1]; DNA#1 (cognate)", "result": 100, "unit": "%"}, {"measurement": "DTG-binding (%) Fluorescence intensity procedure", "setting": "[1]; DNA#2", "result": "83 ± 5", "unit": "%"}, {"measurement": "DTG-binding (%) Fluorescence intensity procedure", "setting": "[1]; DNA#3", "result": "89 ± 6", "unit": "%"}, {"measurement": "DTG-binding (%) Fluorescence intensity procedure", "setting": "[1]; DNA#4", "result": "84 ± 4", "unit": "%"}, {"measurement": "DTG-binding (%) Fluorescence intensity procedure", "setting": "[1]; DNA#5", "result": "101 ± 5", "unit": "%"}, {"measurement": "DTG-binding (%) Fluorescence intensity procedure", "setting": "[1]; DNA#6", "result": "76 ± 5", "unit": "%"}, {"measurement": "DTG-binding (%) Fluorescence intensity procedure", "setting": "[1]; DNA#7", "result": "20 ± 3", "unit": "%"}, {"measurement": "DTG-binding (%) Fluorescence intensity procedure", "setting": "[1]; DNA#8", "result": "7 ± 2", "unit": "%"}, {"measurement": "DTG-binding (%) Fluorescence intensity procedure", "setting": "[1]; DNA#9 (random sequence)", "result": "9 ± 2", "unit": "%"}, {"measurement": "DTG-binding (%) Fluorescence intensity procedure", "setting": "[1]; DNA#10", "result": "23 ± 3", "unit": "%"}, {"measurement": "DTG-binding (%) Fluorescence intensity procedure", "setting": "[1]; DNA#11", "result": "24 ± 2", "unit": "%"}, {"measurement": "DTG binding activity, % of the binding activity obtained with DNA#1", "setting": "[1]; DNA#12 (CAAT-3′→CAGT-3′), both procedures (text summary of Table 1)", "result": "72–77%"}, {"measurement": "DTG-binding (%) Fluorescence intensity procedure", "setting": "[1]; DNA#12", "result": "72 ± 6", "unit": "%"}, {"measurement": "DTG-binding (%) Fluorescence intensity procedure", "setting": "[1]; DNA#13 (processed DNA product)", "result": "66 ± 4", "unit": "%"}, {"measurement": "DTG binding activity, % of the binding activity obtained with DNA#1", "setting": "[1]; IN in complex with DNA#2→6 (text summary of Table 1)", "result": "> 76", "unit": "%"}, {"measurement": "DTG-binding (%) Fluorescence anisotropy procedure", "setting": "[2]; DNA#1 (cognate)", "result": 100, "unit": "%"}, {"measurement": "DTG-binding (%) Fluorescence anisotropy procedure", "setting": "[2]; DNA#3", "result": "96 ± 3", "unit": "%"}, {"measurement": "DTG-binding (%) Fluorescence anisotropy procedure", "setting": "[2]; DNA#7", "result": "42 ± 6", "unit": "%"}, {"measurement": "DTG-binding (%) Fluorescence anisotropy procedure", "setting": "[2]; DNA#8", "result": "8 ± 2", "unit": "%"}, {"measurement": "DTG-binding (%) Fluorescence anisotropy procedure", "setting": "[2]; DNA#9 (random sequence)", "result": "15 ± 3", "unit": "%"}, {"measurement": "DTG-binding (%) Fluorescence anisotropy procedure", "setting": "[2]; DNA#11", "result": "29 ± 3", "unit": "%"}, {"measurement": "DTG-binding (%) Fluorescence anisotropy procedure", "setting": "[2]; DNA#12", "result": "77 ± 4", "unit": "%"}, {"measurement": "DTG-binding (%) Fluorescence anisotropy procedure", "setting": "[2]; DNA#13 (processed DNA product)", "result": "79 ± 5", "unit": "%"}, {"measurement": "Kd", "setting": "[3]", "result": "~1200 µM and 1000 to 2000 µM"}]}
